Among the data in patent publication US20240217968A1, “PHARMACEUTICAL COMPOUND” (DUKE STREET BIO LIMITED, priority 2021, published 2024) are IC50 values, retold here.

Each structure is given as a SMILES string. A value given as a limit tells only on which side of the number the result lay.

The experiment deals with T1, recombinant human Flag-tagged PARP7 (amino acids 456-657) (Homo sapiens, UniProt Q7Z3E1).
T1 construct: recombinant human Flag-tagged PARP7 (amino acids 456-657)
T1 sequence (Q7Z3E1 456-657): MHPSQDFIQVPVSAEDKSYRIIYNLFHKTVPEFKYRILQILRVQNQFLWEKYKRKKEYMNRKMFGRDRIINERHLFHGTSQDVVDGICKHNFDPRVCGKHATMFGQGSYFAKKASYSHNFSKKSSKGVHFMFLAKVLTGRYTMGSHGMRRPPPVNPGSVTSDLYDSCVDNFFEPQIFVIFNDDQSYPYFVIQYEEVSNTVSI
As to the kind of experiment: PARP7 biochemical DELFIA assay (auto-MARylation). The following applies: DELFIA readout, IC50 class. On the procedure:
A suitable assay may be conducted using 10-30 nM PARP7 (amino acids 456-657), 2 μM biotin-NAD assay solution in 20 mM HEPES (pH 7.5), 100 mM NaCl, 2 mM DTT, 0.1% BSA (w/v), 0.02% Tween (v/v) assay buffer. MARylation may take place for 2-3 h at room temperature and may be detected using a dissociation-enhanced lanthanide fluorescence immunoassay (DELFIA) readout. This assay format has been recently utilised for screening for modulators of PARP7 and other MonoPARP enzymes ([…]. et al. Forced Self-Modification Assays as a Strategy to Screen MonoPARP Enzymes. SLAS Discovery. 25; 241-252, (2020)). A particularly suitable assay is described in the Examples below. Optiplate HB 384-well plates were coated with anti-FLAG antibody, supplied as a 4 mg/ml solution, using a Na2CO3/HCO3 coating buffer at pH 9.6, overnight at 4° C., in order to achieve a final immobilisation per well of 0.3 μg. Wells were then washed 3× in coating wash buffer (PBS/0.05% Tween (v/v)), blocked with 2% BSA (w/v) in coating wash buffer and washed 3 further times prior to assay. For the assay 20 μl of 12.5-37.5 nM recombinant human Flag-tagged PARP7 (amino acids 456-657) was added to each well of the 384-well plate for 30 min at room temperature. 50 nl of test compound in DMSO was added using pintool technology and plates were incubated for a further 30 min at room temperature. 5 μl of 15 μM biotin-NAD^+ assay solution in 20 mM HEPES (pH 7.5), 100 mM NaCl, 2 mM DTT, 0.1% BSA (w/v), 0.02% Tween (v/v) assay buffer was then added and MARylation proceeded for 2-3 h at room temperature prior to the addition of 5 μl of 12 mM NAD^+ quenching solution. After 30 min at room temperature, assay solution was removed and following washing 5 times, 100 μl of a 1:1000 dilution of DELFIA Eu-N1 Streptavidin reagent was added. Plates were then incubated for 30 min at room temperature. Reaction mixture was removed and plates washed 5 times prior to the addition of 25 μl DELFIA enhancement solution. Following incubation for 30 min at room temperature, fluorescence was read on either an Envision or Pherastar FS (Ex337 nm, Em620 nm).
Usually IC50 stands for the midpoint of a concentration-inhibition curve. On to `CC(COCC(=O)NC1CCN(c2ncc(C(F)(F)F)cn2)CC1)n1cc(C(F)(F)F)c2c(=O)[nH]ncc21` (stereo not drawn) [Compound 458], for which the IC50 is at most 100 nM. Regarding `CCC(OCCCC(=O)N1CCN(c2ncc(C(F)(F)F)cn2)CC1)c1cccc2c(=O)[nH]ncc12` (single isomer, unassigned) [Compound 210], the IC50 was at most 100 nM.

For `CC(COCCC(=O)N1CCN(c2ncc(C(C)(F)F)cn2)CC1)n1cc(C(F)(F)F)c2c(=O)[nH]ncc21` (stereo not drawn) [Compound 481], the IC50 is at most 100 nM.

For the molecule `CC(COCCC(=O)N1CCN(c2ncc(C#N)cn2)CC1)c1ccc(Cl)c2c(=O)[nH]ncc12` (stereo not drawn) [Compound 415], the IC50 is at most 100 nM. The figure for `CC(COCCC(=O)N1CCN(c2ccc(C#N)cn2)CC1)n1cc(C(F)(F)F)c2c(=O)[nH]ncc21` (single isomer, unassigned) [Compound 432] is at most 100 nM. As for `CC(CCOCC(=O)N1CCN(c2ncc(Cl)cn2)CC1)n1cc(C(F)(F)F)c2c(=O)[nH]ncc21` (single isomer, unassigned) [Compound 457], the IC50 was at most 100 nM. `O=C1NCCc2c(Cc3cccc(C(=O)N4CCN(C(=O)C5CC5)CC4)c3)cccc21` [Compound 21]: the IC50 is 1000 to 10000 nM. The same measure for `CC(COCCC(=O)N1CCN(c2ccc(C(C)(F)F)cn2)CC1)n1cc(C(F)(F)F)c2c(=O)[nH]ncc21` (single isomer, unassigned) [Compound 484]: at most 100 nM. As for `O=C(c1cccc(Cc2cccc3c(=O)[nH]ncc23)c1)N1CCN(c2ccccc2)CC1` [Compound 27], the IC50 was in the range of 1000 to 10000 nM. As to `Cc1cnc(N2CCN(C(=O)CCOCC(C)n3nc(C(F)(F)F)c4c(=O)[nH]ncc43)CC2)nc1` (stereo not drawn) [Compound 287], the IC50 was at most 100 nM.

As to `CC(COCCC(=O)N1CCN(c2cc(C(F)(F)F)ccn2)CC1)n1nc(C(F)(F)F)c2c(=O)[nH]ncc21` (stereo not drawn) [Compound 351], the IC50 is at most 100 nM. Regarding `CNC(=O)c1ccc(N2CCN(C(=O)CCOCC(C)n3nc(C(F)(F)F)c4c(=O)[nH]ncc43)CC2)nc1` (stereo not drawn) [Compound 304], the IC50 fell in the range of 100 to 1000 nM. For `CC(COCCC(=O)N1CCN(c2ncc(C(F)(F)F)cn2)CC1)n1cc(C(F)(F)F)c2c(=O)[nH]ncc21` (single isomer, unassigned) [Compound 224, 1-(1-(3-oxo-3-(4-(5-(trifluoromethyl)pyrimidin-2-yl)piperazin-1-yl)propoxy)propan-2-yl)-3-(trifluoromethyl)-1,5-dihydro-4H-pyrrolo[2,3-d]pyridazin-4-one], the IC50 was at most 100 nM. The same measure for `Cc1nn(C(C)COCCC(=O)N2CCN(c3ncc(C(F)(F)F)cn3)CC2)c2cn[nH]c(=O)c12` (stereo not drawn) [Compound 246]: at most 100 nM; for `CC(COCCC(=O)N1CCN(c2ncc(F)cn2)CC1)n1nc(C(F)(F)F)c2c(=O)[nH]ncc21` (single isomer, unassigned) [Compound 249, 1-(1-(3-(4-(5-fluoropyrimidin-2-yl)piperazin-1-yl)-3-oxopropoxy)propan-2-yl)-3-(trifluoromethyl)-1,5-dihydro-4H-pyrazolo[3,4-d]pyridazin-4-one]: at most 100 nM. `CC(COCCC(=O)N1CCN(c2ncc(C3CC3)cn2)CC1)n1nc(C(F)(F)F)c2c(=O)[nH]ncc21` (single isomer, unassigned) [Compound 280]: the IC50 was at most 100 nM. Consider `N#Cc1ccc(N2CCN(S(=O)(=O)c3cccc(Cc4cccc5c(=O)[nH]ncc45)c3)CC2)nc1` [Compound 39], for which the half-inhibitory concentration (IC50) fell in the range of 1000 to 10000 nM.

Regarding `Cc1nn(CCOCCC(=O)N2CCN(c3ncc(C(F)(F)F)cn3)CC2C)c2cn[nH]c(=O)c12` (stereo not drawn) [Compound 268], the IC50 is at most 100 nM.

`N#Cc1ccc(N2CCN(C(=O)c3cccc(OCCc4cccc5c(=O)[nH]ncc45)c3)CC2)nc1` [Compound 42]: the IC50 was at most 100 nM. `O=C(c1cccc(Cn2cc(C(F)(F)F)c3c(=O)[nH]ncc32)c1)N1CCN(c2ncc(C(F)(F)F)cn2)CC1` [Compound 478]: the IC50 is at most 100 nM. On to `N#Cc1ccc(N2CCN(C(=O)CCOCCc3cc(C(F)(F)F)cc4c(=O)[nH]ncc34)CC2)nc1` [Compound 68], for which the IC50 was 100 to 1000 nM.
